Source: US20220031607A1, “INJECTION COMPOSITION CONTAINING FAB I INHIBITOR, AND PREPARATION METHOD THEREFOR” (CRYSTALGENOMICS, INC., priority 2019, published 2022)

Key:
[1] = Stability after dilution of prepared freeze-dried powder in physiological saline; assay type: physicochemical; settings: 16% HP-beta-cyclodextrin solution, 60 °C, aqueous with cosolvent or surfactant or cyclodextrin, thermodynamic from solid; in 16% HP-beta-cyclodextrin; read-out: highest solubility
Experimental: Hydroxypropyl beta-cyclodextrin (HP-beta-cyclodextrin) was dissolved in distilled water for injection under stirring at room temperature and heated to 60° C., and the compound of formula 1 was added thereto, stirred and enclosed therein. The liquid injection was sterilized and filtered through 0.22 μm filter paper. The filtered injection solution was filled into a glass vial, cooled at −80° C., and freeze-dried to commercialize.

[2] = Evaluation of excipient suitability (related substances on storage at 60° C.); assay type: physicochemical; design: Total related substances, Initial value: unit not given here; settings: for Total related substances, Severe (1 week): 60° C.
Experimental: The resulting product was stored at 60° C. and the stability of the compound of formula 1 was measured. The measurement of related substances was evaluated according to the guidelines for the evaluation of related substances of the Ministry of Food and Drug Safety, and the results are shown in Table 2.

[3] = mixed with Beta-Hydroxypropyl cyclodextrin

SMILES: Cc1c(N)cccc1Cn1ccc(OCCc2cccs2)cc1=O [Compound of formula 1, 1-(3-amino-2-methylbenzyl)-4-(2-thiophen-2-yl-ethoxy)-1H-pyridin-2-one]
- Solubility [1]: 3 mg/mL
- Total related substances, Initial value ([2]; Compound of formula 1 alone): 0.5
- Total related substances, Severe (1 week) ([2]; Compound of formula 1 alone): 0.5
- Total related substances, Initial value [2, 3]: 0.5
- Total related substances, Severe (1 week) [2, 3]: 0.6
- Total related substances, Initial value ([2]; mixed with Cremophor 40): 1.6
- Total related substances, Severe (1 week) ([2]; mixed with Cremophor 40): 3.4
- Total related substances, Initial value ([2]; mixed with Glycerin): 1.4
- Total related substances, Severe (1 week) ([2]; mixed with Glycerin): 1.1
- Total related substances, Initial value ([2]; mixed with Labrasol): 6.2
- Total related substances, Initial value ([2]; mixed with Oleic acid): 6.2
- Total related substances, Initial value ([2]; mixed with Olive oil): 1.1
- Total related substances, Severe (1 week) ([2]; mixed with Olive oil): 0.7
- Total related substances, Initial value ([2]; mixed with PEG): 1.1
- Total related substances, Initial value ([2]; mixed with PEG 400): 6.4
- Total related substances, Severe (1 week) ([2]; mixed with PEG 400): 9.8
- Total related substances, Initial value ([2]; mixed with PEG 20,000): 4.2
- Total related substances, Severe (1 week) ([2]; mixed with PEG 20,000): 1
- Total related substances, Severe (1 week) ([2]; mixed with PEG): 7
- Total related substances, Initial value ([2]; mixed with PVA): 0.9
- Total related substances, Initial value ([2]; mixed with PVA 2,000): 0.9
- Total related substances, Severe (1 week) ([2]; mixed with PVA 2,000): 0.6
- Total related substances, Severe (1 week) ([2]; mixed with PVA): 0.6
- Total related substances, Initial value ([2]; mixed with Poloxamer 407): 0.9
- Total related substances, Severe (1 week) ([2]; mixed with Poloxamer 407): 0.5
- Total related substances, Initial value ([2]; mixed with Propylene glycol): 1
- Total related substances, Severe (1 week) ([2]; mixed with Propylene glycol): 5
- Total related substances, Initial value ([2]; mixed with Solutol HS 15): 0.7
- Total related substances, Severe (1 week) ([2]; mixed with Solutol HS 15): 3.8
- Total related substances, Initial value ([2]; mixed with Soybean Oil): 1.1
- Total related substances, Severe (1 week) ([2]; mixed with Soybean Oil): 1.4
- Total related substances, Initial value ([2]; mixed with Transcutol HP): 1.9
- Total related substances, Severe (1 week) ([2]; mixed with Transcutol HP): 9.1
- Total related substances, Initial value ([2]; mixed with Tween 80): 1.2
- Total related substances, Severe (1 week) ([2]; mixed with Tween 80): 2.6
- Stability with excipients ([2]; with soybean oil, olive oil, Tween 80, PEG 20000, PVA, PVA 2000, poloxamer 407, beta-hydroxypropyl cyclodextrin, glycerin): relatively stable
